The record followed here is publication PMC7768359, “Synthesis of Platinum(II) Complexes with Some 1-Methylnitropyrazoles and In Vitro Research on Their Cytotoxic Activity” (Pharmaceuticals, 2020).

Series [1] relates to ES-2 (ovarian adenocarcinoma). In words: In vitro cytotoxicity, sulforhodamine B assay. It counts as cell-based, human. To be noted: 72 h. On the procedure:
(§1) Determination of the cytotoxic activity of compounds tested was performed separately in the normoxia or hypoxia conditions to reveal their potentially bioreductive properties. The experiment was carried out on three human cancer cell lines: MCF-7 breast, ES-2 ovarian and A549 lung adenocarcinoma as well as normal murine embryonic fibroblast BALB/3T3 cell line. In order to facilitate the preparation of solutions of the tested compounds, their initial solutions for dilution were made by dissolving the compounds in acetone. For this purpose, it was not possible to use more polar aprotic solvents (DMSO, DMF) due to the rapid isomerization of some of the tested complexes under their influence.
(§2) All the cell lines were cultured at 37 °C in a humid atmosphere containing 5% CO2. Additionally, in the case of cytotoxicity assay with hypoxic conditions, the cells (MCF-7, ES-2, A549) were maintained at 37 °C in a humid atmosphere containing 5% CO2 and 1% O2 during the entire experiment.
(§3) Twenty-four hours before adding the tested compounds, all cell lines were seeded in 96-well plates ([…] AG & Co, Nümbrecht Germany) in an appropriate media with 10^4 cells per well. All cell lines were exposed to each compound tested at four different concentrations for 72 h. […] Additionally, all cell lines were exposed to acetone (Avantor Performance Materials, Gliwice, Poland) (the solvent used for tested compounds) at concentrations corresponding to those present in tested compounds’ dilutions.
(§4) After 72 h of cell incubation with the compounds tested, the sulforhodamine B (SRB) assay was performed as described by Shekan et al. with minor modifications. The cells were fixed in situ by adding 50 µL per well of cold 50% trichloroacetic acid (Avantor Performance Materials, Gliwice, Poland) and were incubated at 4 °C for one hour. Following that, wells were washed five times with water and air dried. Next, 50 µL of 0.4% solution of sulforhodamine B (Sigma-Aldrich, Steinheim, Germany) in 1% acetic acid (Avantor Performance Materials, Gliwice, Poland) were added to each well and plates were incubated at room temperature for 0.5 h. After incubation time, the unbound dye was removed by washing plates five times with 1% acetic acid, whereas stains bound to cells was solubilized with 10 mM Tris base (Sigma-Aldrich, Steinheim, Germany). The absorbance of each solution was read by the Multiskan RC photometer (Labsystems Diagnostics Oy, Vantaa, Finland) at a 540 nm wavelength. Results are presented as mean IC50 (concentration of the compound tested that inhibits cell proliferation by 50%) ± standard deviation. IC50 values were calculated for each experiment on the basis of four different concentrations using Cheburator software, as described by Nevozhay. The tested compounds at each concentration were tested in triplicates in a single experiment and each experiment was repeated at least three times independently.
Background: Sulforhodamine B stains cellular protein and so reports cell mass.

The subject of series [2] is MCF-7 (breast adenocarcinoma). In words: In vitro cytotoxicity, sulforhodamine B assay. In kind it is cell-based, human. Particulars: for growth inhibition stronger than reference cisplatin (factor): MCF-7. On the procedure:
as §1, §2, §3, §4

Series [3] in a line: Isomerization of complexes in solution. In kind it is physicochemical. To be noted: chloroform, acetone, DMSO, DMF. An excerpt: Additionally, it is worth adding that complexation with 1-methyl-3-nitropyrazole, was unsuccessful, probably because of the steric hindrance of both methyl and nitro groups that constrain access to free pair of electrons of pyrazole nitrogen. Besides, the electrostatic repelling of the approaching tetrachloroplatinate anion by electron dense oxygen atoms of the nitro group may also be an important factor that can hinder and/or prevent the formation of a complex. […] The reason is that both symmetric and antisymmetric valence vibrations of cis Pt(II)complexes are active, contrary to trans isomers in which case only antisymmetric vibration is active.
A solution of 254 mg (2 mmol) of 1-methyl-5-nitropyrazole in 3 mL of acetone was mixed with a solution of 415 mg (1 mmol) of K2PtCl4 in 5 mL of water and maintained in darkness at 25 °C until the reaction completion (TLC, app. 3 days). […] Combustion and spectral analyses for the cis complex 3: Elemental analysis for formula C8H10N6O4Cl2Pt of compound 3: Calculated/Found (%): C 18.47/17.97, H 1.94/1.66, N 16.16/16.50, Cl 13.63/13.87. ^1H NMR (300.15 MHz, acetone-d6): δ[ppm] […] Combustion and spectral analyses for the trans complex 4: Elemental analysis for formula C8H10N6O4Cl2Pt of trans-complex 4: Calculated/Found (%): C 18.47/18.14, H 1.94/1.65, N 16.16/15.89, Cl 13.63/13.82. ^1H NMR (300.15 MHz, acetone-d6): δ[ppm] […]

In the case of `Cn1cc([N+](=O)[O-])c[n+]1[Pt@SP2-2]([Cl])([Cl])[n+]1cc([N+](=O)[O-])cn1C` [Compound 1, cis-dichloridobis(1-methyl-4-nitropyrazole)platinum(II)], the IC50 in series [1] (ES-2, hypoxia (1% O2)) is 109 ± 22.6 µM; in series [1] (ES-2, normoxia), 29.4 ± 24.9 µM; in series [2] (MCF-7, normoxia, 72 h), 74.7 ± 36.1 µM. Also, in series [2] (MCF-7, hypoxia (1% O2), 72 h), the “IC50 ± SD” value was “inactive”.
Take `Cn1cc([N+](=O)[O-])c[n+]1[Pt@SP3-2]([Cl])([Cl])[n+]1cc([N+](=O)[O-])cn1C` [Compound 2, trans-dichloridobis(1-methyl-4-nitropyrazole)platinum(II)]: the IC50 was determined as 1.1 ± 0.3 µM in series [1] (ES-2, hypoxia (1% O2)); 0.7 ± 0.7 µM in series [1] (ES-2, normoxia); 11.1 ± 5.6 µM in series [2] (MCF-7, hypoxia (1% O2), 72 h); 1.8 ± 0.9 µM in series [2] (MCF-7, normoxia, 72 h). Also, the “growth inhibition stronger than reference cisplatin (factor)” value in series [2] is listed as “about seven times”.
Consider `Cn1c([N+](=O)[O-])cc[n+]1[Pt@SP2-2]([Cl])([Cl])[n+]1ccc([N+](=O)[O-])n1C` [Compound 3, cis-dichloridobis(1-methyl-5-nitropyrazole)platinum(II)], for which the IC50 in series [1] (ES-2, hypoxia (1% O2)) is 51.9 ± 16.7 µM; in series [1] (ES-2, normoxia), 75.4 ± 12.3 µM; in series [2] (MCF-7, hypoxia (1% O2), 72 h) it was 41.5 ± 39.9 µM; in series [2] (MCF-7, normoxia, 72 h), 10.1 ± 1.4 µM. Besides, in series [3], the isomerization in solution result is “occurred slowly in chloroform or acetone solutions but much faster in more polar aprotic solvents (DMSO, DMF)”.
For the compound `Cn1c([N+](=O)[O-])cc[n+]1[Pt@SP3-2]([Cl])([Cl])[n+]1ccc([N+](=O)[O-])n1C` [Compound 4, trans-dichloridobis(1-methyl-5-nitropyrazole)platinum(II)], the IC50 turned out to be 32.3 ± 27 µM in series [1] (ES-2, hypoxia (1% O2)); 41.1 ± 7.1 µM in series [1] (ES-2, normoxia); 32 ± 9.2 µM in series [2] (MCF-7, hypoxia (1% O2), 72 h); 7.8 ± 1.3 µM in series [2] (MCF-7, normoxia, 72 h). Moreover, the “growth inhibition stronger than reference cisplatin (factor)” value in series [2] was “almost two times”. Moreover, the isomerization in solution entry in series [3] is listed as “occurred slowly in chloroform or acetone solutions but much faster in more polar aprotic solvents (DMSO, DMF)”.

The IC50 is the concentration at which inhibition is half-maximal. Read a high IC50 as weaker potency in that assay.
